{"source": "patent US20100196874A1", "about": "“METHOD OF DRUG DESIGN” (priority 2006, published 2010)", "key": {"CVB3 [1]": {"tested_on": "CVB3", "conditions": "for IC50: read-out: IC5, HeLa cell culture with CVB3; for order of antiviral potency: CVB3, same order as against HRV2; for antiviral effect against CVB3 relative to cytotoxic effect: % virus yield versus % cell metabolism, HeLa cells, FIG. 1", "from_the_text": "The toxicity of the compounds (CC50, being the concentration causing 50% reduction in cell metabolism as measured by Alamar Blue assay) reflects the relative activity of each compound against cellular ion channels, while the antiviral activity (IC50) reflects the relative activity of each compound against the RdRP of CVB3."}, "HRV2": {"tested_on": "HRV2", "conditions": "cited from earlier work"}, "CVB3 [2]": {"tested_on": "CVB3", "experiment": "Viral RNA synthesis, 3H-uridine pulse label", "format": "cell-based, Coxsackievirus B3", "conditions": "treated between four and five hours post infection, compared to untreated cells", "procedure": "A standard method to determine which of the two processes is inhibited directly is to add the inhibitor and pulse-label viral RNA and proteins at the time in the replication cycle when sufficient amounts of RNA and proteins have been produced to allow continuation of one process independent of the other.\nIn a further set of experiments, the effect of the drugs on viral protein synthesis (see FIG. 5) and viral RNA synthesis (see FIG. 6) was determined. Cells were infected as described in Examples 2 and 3, and drugs were added to cells at four hours post infection. Radioactive labels (35S-methionine for proteins, 3H-uridine for RNA) were added to cells from 4.5-5 h post infection. Treatment with GHCl, which inhibits enteroviral RNA replication but not protein synthesis was used as a control."}, "CVB3 [3]": {"tested_on": "CVB3", "experiment": "Time of addition of drugs to CVB3-infected cultures, total virus yield", "format": "cell-based, Coxsackievirus B3", "conditions": "400 μM amiloride or 25 μM EIPA, added up to 2 hours post-infection, yield at 10 hours", "procedure": "Cultures were incubated until 10 hours post-infection, then the total virus yield (released virus+intracellular virus) was quantitated (FIG. 2A). Kinetics of virus production was measured in parallel (FIG. 2B). […] This contrasts with well-known antiviral drugs active against picornaviruses such as Pleconaril, which prevent uncoating and/or binding to the cell."}, "[4]": {"tested_on": "CVB3 mutants S299T, A372V, D48G", "experiment": "Drug sensitivity of CVB3 carrying single introduced mutations", "format": "cell-based, Coxsackievirus B3", "conditions": "for effect of D48G mutation on virus sensitivity: 2A protein mutation by itself; for sensitivity of viruses containing S299T or A372V mutations: 3D protein mutations, FIG. 11"}, "[5]": {"tested_on": "amiloride-resistant and guanidine-resistant CVB3 clones", "experiment": "Cross-resistance of amiloride-resistant and guanidine-resistant virus clones", "format": "cell-based, Coxsackievirus B3"}, "CVB3 [6]": {"tested_on": "CVB3", "experiment": "Release of virus from CVB3-infected cells", "format": "cell-based, Coxsackievirus B3", "conditions": "compared to untreated controls, FIG. 3"}, "CVB3 [7]": {"tested_on": "CVB3", "experiment": "Reversibility: compounds removed at various times post-infection, CVB3 yield at 10 hours", "format": "cell-based, Coxsackievirus B3", "conditions": "compounds removed at 1, 2 or 4 hours post-infection, HeLa cells", "procedure": "Virus replication was then allowed to continue until 10 hours post-infection."}, "CVB3 [8]": {"tested_on": "CVB3", "experiment": "Viral assembly: viral RNA (3H-uridine) versus virus produced", "format": "cell-based, Coxsackievirus B3", "conditions": "3H-uridine labelling; 25 micromolar EIPA (compared with 500 micromolar guanidine), 400 micromolar amiloride", "procedure": "In a further set of experiments, the effect of the drugs on viral assembly was determined. […] Guanidine is well known to inhibit the initiation of viral RNA replication through its effect on the viral 2C protein, but has no effect on the assembly of virus from RNA that is replicated in its presence. Infected cells were incubated with 3H-uridine to label viral RNA, and RNA was detected by electrophoresis and autoradiography."}, "[9]": {"conditions": "concentration causing 50% reduction in cell metabolism, Alamar Blue assay, HeLa"}}, "note": "Like-named read-outs stand apart in the source and are kept apart here.", "data": [{"compound": "N=C(NCc1ccc(Cl)cc1Cl)NC(=O)c1nc(Cl)c(N)nc1N", "note": "[2,4-DCB]", "values": [{"measurement": "CC5", "setting": "HeLa cells; [9]", "result": 14, "unit": "µM"}, {"measurement": "IC50", "setting": "CVB3 [1]", "result": 5, "unit": "µM"}]}, {"compound": "N/C(=N\\C(=O)c1nc(Cl)c(N)nc1N)NCc1ccc(Cl)c(Cl)c1", "note": "[3,4-DCB]", "values": [{"measurement": "CC5", "setting": "HeLa cells; [9]", "result": 14, "unit": "µM"}, {"measurement": "IC50", "setting": "CVB3 [1]", "result": 5, "unit": "µM"}]}, {"compound": "NC(N)=NC(=O)c1nc(Cl)c(N)nc1N", "note": "[Amiloride, 3,5-diamino-6-chloro-N-(diaminomethylidene) pyrazine-2-carboxamide]", "values": [{"measurement": "effect upon HRV2 RNA replication", "setting": "HRV2", "result": "no effect"}, {"measurement": "CC5", "setting": "HeLa cells", "result": ">1000", "unit": "µM"}, {"measurement": "amount of viral RNA synthesis", "setting": "CVB3 [2]", "result": "dramatically reduced"}, {"measurement": "reduction of virus replication by time of addition", "setting": "CVB3 [3]", "result": "fully effective"}, {"measurement": "order of antiviral potency", "setting": "CVB3 [1]", "result": "EIPA>benzamil>amiloride"}, {"measurement": "IC50", "setting": "CVB3 [1]", "result": 50, "unit": "µM"}, {"measurement": "effect of D48G mutation on virus sensitivity", "setting": "[4]", "result": "no significant effect"}, {"measurement": "sensitivity of viruses containing S299T or A372V mutations", "setting": "[4]", "result": "reduced sensitivity"}, {"measurement": "sensitivity of guanidine-resistant virus clones to antiviral effect", "setting": "[5]; six clones of guanidine-resistant virus", "result": "remained sensitive"}, {"measurement": "proportion of extracellular virus", "setting": "CVB3 [6]", "result": "slight increase"}, {"measurement": "CVB3 production at 10 hours post-infection after removal of compound", "setting": "CVB3 [7]", "result": "equivalent to that of the untreated cultures"}, {"measurement": "amount of viral RNA produced", "setting": "CVB3 [8]", "result": "greatly reduced"}]}, {"compound": "N/C(=N\\C(=O)c1nc(Cl)c(N)nc1N)NCc1ccccc1", "note": "[Benzamil]", "values": [{"measurement": "CC5", "setting": "HeLa cells; [9]", "result": 100, "unit": "µM"}, {"measurement": "antiviral effect against CVB3 relative to cytotoxic effect", "setting": "CVB3 [1]", "result": "selective antiviral effect"}, {"measurement": "order of antiviral potency", "setting": "CVB3 [1]", "result": "EIPA>benzamil>amiloride"}, {"measurement": "IC50", "setting": "CVB3 [1]", "result": 10, "unit": "µM"}]}, {"compound": "CNC(N)=NC(=O)c1cc(Cl)ccc1O", "note": "[CHMG]", "values": [{"measurement": "CC5", "setting": "HeLa cells; [9]", "result": 155, "unit": "µM"}, {"measurement": "IC50", "setting": "CVB3 [1]", "result": 9, "unit": "µM"}]}, {"compound": "CN(C)c1nc(N)c(C(=O)N=C(N)N)nc1Cl", "note": "[DMA]", "values": [{"measurement": "CC5", "setting": "HeLa cells; [9]", "result": 190, "unit": "µM"}, {"measurement": "IC50", "setting": "CVB3 [1]", "result": 90, "unit": "µM"}]}, {"compound": "CCN(c1nc(N)c(C(=O)N=C(N)N)nc1Cl)C(C)C", "note": "[EIPA, 5-(N-ethyl-N-isopropyl)amiloride]", "values": [{"measurement": "effect upon HRV2 RNA replication", "setting": "HRV2", "result": "no effect"}, {"measurement": "effect on HRV2 release", "setting": "HRV2; previous data", "result": "inhibitory effect"}, {"measurement": "CC5", "setting": "HeLa cells; [9]", "result": 25, "unit": "µM"}, {"measurement": "amount of viral RNA synthesis", "setting": "CVB3 [2]", "result": "dramatically reduced"}, {"measurement": "reduction of virus replication by time of addition", "setting": "CVB3 [3]", "result": "fully effective"}, {"measurement": "antiviral effect against CVB3 relative to cytotoxic effect", "setting": "CVB3 [1]", "result": "selective antiviral effect"}, {"measurement": "order of antiviral potency", "setting": "CVB3 [1]", "result": "EIPA>benzamil>amiloride"}, {"measurement": "IC50", "setting": "CVB3 [1]", "result": 2, "unit": "µM"}, {"measurement": "effect of D48G mutation on virus sensitivity", "setting": "[4]", "result": "no significant effect"}, {"measurement": "sensitivity of viruses containing S299T or A372V mutations", "setting": "[4]", "result": "reduced sensitivity"}, {"measurement": "proportion of extracellular virus", "setting": "CVB3 [6]", "result": "slight increase"}, {"measurement": "CVB3 production at 10 hours post-infection after removal of compound", "setting": "CVB3 [7]", "result": "equivalent to that of the untreated cultures"}, {"measurement": "amount of viral RNA produced", "setting": "CVB3 [8]", "result": "equivalent amounts of viral RNA"}]}, {"compound": "NC(N)=NC(=O)c1nc(Cl)c(N2CCCCCC2)nc1N", "note": "[HMA, 5-(N,N-hexamethylene)amiloride]", "values": [{"measurement": "CC5", "setting": "HeLa cells", "result": 25, "unit": "µM"}, {"measurement": "antiviral effect against CVB3 relative to cytotoxic effect", "setting": "CVB3 [1]", "result": "selective antiviral effect"}, {"measurement": "IC50", "setting": "CVB3 [1]", "result": 2, "unit": "µM"}]}, {"compound": "CC(C)CN(C)c1nc(N)c(C(=O)N=C(N)N)nc1Cl", "note": "[MIBA]", "values": [{"measurement": "CC5", "setting": "HeLa cells; [9]", "result": 25, "unit": "µM"}, {"measurement": "IC50", "setting": "CVB3 [1]", "result": 2, "unit": "µM"}]}, {"compound": "Cl.N=C(N)N", "note": "[guanidine, guanidine hydrochloride]", "values": [{"measurement": "sensitivity of amiloride-resistant virus clones to antiviral effect", "setting": "[5]; six clones of amiloride-resistant virus", "result": "remained sensitive"}]}, {"compound": "CHPG", "values": [{"measurement": "CC5", "setting": "HeLa cells; [9]", "result": 15, "unit": "µM"}, {"measurement": "IC50", "setting": "CVB3 [1]", "result": 2, "unit": "µM"}]}]}
